# Data: patent US8029774B2, “Wound healing polymeric networks” (University of Pittsburgh, priority 2005, dated 2011)
# What was measured:
# [1] = system: human dermal fibroblasts; assay: Cell motility, in vitro wound healing assay; conditions: for movement of fibroblasts: in vitro wound healing assay, compared to no gel
# [2] = system: human keratinocytes (HaCaT cells); assay: Cell motility, in vitro wound healing assay; conditions: compared to no gel
# [3] = system: human fibroblasts
smiles,measurement,setting,value
"COC(=O)C(CCCCN=C=O)N=C=O (centres unmarked) [LDI, Lysine diisocyanate methyl ester]",movement of fibroblasts,[1],limited cell movement
same,movement of keratinocytes,[2],limited cell movement
OC[C@H]1O[C@@H](O[C@H]2[C@H](O)[C@@H](O)C(O)O[C@@H]2CO)[C@H](O)[C@@H](O)[C@H]1O (some centres unmarked) [lactose],movement of fibroblasts,[1],limited cell movement
same,movement of keratinocytes,[2],limited cell movement
O=[N+]([O-])[O-].[Ag+] [silver nitrate],dead cells,"[3]; human fibroblasts, 3 μg/ml of silver nitrate in medium, or polymer cured with 3 μg/ml silver",10%
[Ag] [silver],impact on cell migration or proliferation,[1]; silver per se,no adverse impact
same,concentrations of silver preferred for cell proliferation,[3],lower than 15 μg/ml
same,fibroblasts proliferation,[3],greatly inhibited
